# Patent US7279582B2, “Retroviral protease inhibiting compounds” (priority 1995, dated 2007)
# Key:
# uninfected MT4 cells = type: cell-based; conditions: n=4 duplicate determinations, read-out: LC50 (the source's name)
# Description: (§1) The anti-HIV activity of the compound of the invention can be determined in MT4 cells according to the following procedure. MT4 cells were infected with cell-free supernatant of HIVIIIB (previously frozen with known 50% tissue culture infectious dose (TCID50) at 0.003 multiplicity of infection (MOI) for one hour. After one hour infection, cells were washed twice to remove residual viruses, resuspended in culture media and seeded into 96-well tissue culture plates at 1×10^4 cells per well with various half-log dilutions of compounds. Uninfected cells are included as toxicity and cell controls. RPMI 1640 media (Gibco) with 10% fetal bovine serum were used as culture media. Various concentrations of human serum (Sigma) 50%, 25% and 12.5% were added to culture media resulting in final concentration of 60%, 35% and 22.5% total serum. All assay plates were incubated in 37 deg. cent. incubator for 5 days. MTT (sigma, 5 mg/ml stock in PBS) was added to all wells at 25 ul per well, incubate for 4 hours. 20% SDS with 0.02 N HCI in water was added at 50 ul per well to lyse cells. Plates incubated overnight for complete lyses were read on a microtitre plate reader at 570/650 nm wavelengths to determine cell optical density (O.D.). Raw data were analysed for percent inhibition by the following formula: O.D. test well−O.D. virus control×100 O.D. cell control−O.D. virus control The 50% effective concentration (EC50) was calculated by the median effect equation (Chou, 1975, Proc. Int. Cong. Pharmacol. 6th p. 619) to determine the efficacy of compound. The 50% lethal concentration (LC50) was calculated using uninfected MT4 cells.
# (§2) Under these conditions, the following data were obtained (n=4 duplicate determinations: […]
# HIV protease = HIV protease (Human immunodeficiency virus type 1 group M subtype B, UniProt P04585); assay: Fluorogenic assay for screening inhibitors of HIV protease; type: biochemical; conditions: Inhibitor Concentration 0.5 nanomolar
# Protocol: Fluorogenic Assay for Screening Inhibitors of HIV Protease
# The inhibitory potency of the compound of the invention can be determined by the following method.
# The compound of the invention is dissolved in DMSO and a small aliquot further diluted with DMSO to 100 times the final concentration desired for testing. The reaction is carried out in a 6×50 mm tube in a total volume of 300 microliters. The final concentrations of the components in the reaction buffer are: 125 mM sodium acetate, 1 M sodium chloride, 5 mM dithiothreitol, 0.5 mg/ml bovine serum albumin, 1.3 μM fluorogenic substrate, 2% (v/v) dimethylsulfoxide, pH 4.5. After addition of inhibitor, the reaction mixture is placed in the fluorometer cell holder and incubated at 30° C. for several minutes. The reaction is initiated by the addition of a small aliquot of cold HIV protease. The fluorescence intensity (excitation 340 nm, emmision 490 nM) is recorded as a function of time. The reaction rate is determined for the first six to eight minutes. The observed rate is directly proportional to the moles of substrate cleaved-per unit time. The percent inhibition is 100×(1−(rate in presence of inhibitor)/(rate in absence of inhibitor)).
# Fluorogenic substrate: Dabcyl-Gaba-Ser-Gln-Asn-Tyr-Pro-lle-Val-Gln-EDANS wherein DABCYL=4-(4-dimethylamino-phenyl)azobenzoic acid, Gaba=γ-aminobutyric acid, and EDANS=5-((2-aminoethyl)amino)-naphthalene-1-sulfonic acid.
# HIVIIIB = assay: Anti-HIV activity in MT4 cells infected with HIVIIIB (MTT readout); type: cell-based; conditions: 0% plasma, 5 days, n=4 duplicate determinations
# Description: as §1, §2
SMILES,CC50 (uninfected MT4 cells),Percent Inhibition (HIV protease),IC50 (HIVIIIB)
"Cc1ccnc(C)c1OCC(=O)N[C@@H](Cc1ccccc1)[C@@H](O)C[C@H](Cc1ccccc1)NC(=O)[C@H](C(C)C)N1CCNC1=O [Example 15, (2S,3S,5S)-2-(2,4-Dimethyl-pyridin-3-oxy-acetyl)amino-3-hydroxy-5-(2S-(1-imidazolidin-2-onyl)-3-methyl-butanoyl)amino-1,6-diphenylhexane]",> 100000 nM,48%,0.119 µM
"Cc1cccc(C)c1OCC(=O)N[C@@H](Cc1ccccc1)[C@@H](O)C[C@H](Cc1ccccc1)NC(=O)[C@H](C(C)C)N1CCCC1=O [Example 17C, (2S,3S,5S)-2-(2,6-Dimethylphenoxyacetyl)amino-3-hydroxy-5-(2S-(1-pyrrolidin-2-onyl)-3-methyl-butanoyl)amino-1,6-diphenylhexane]",19000 nM,87.2%,0.051 µM
"Cc1cccc(C)c1OCC(=O)N[C@@H](Cc1ccccc1)[C@@H](O)C[C@H](Cc1ccccc1)NC(=O)[C@H](C(C)C)N1C(=O)CCC1=O [Example 18C, (2S,3S,5S)-2-(2,6-Dimethylphenoxyacetyl)amino-3-hydroxy-5-(2S-(1-pyrrolidin-2,5-dionyl)-3-methyl-butanoyl)amino-1,6-diphenylhexane]",19100 nM,57.8%,0.329 µM
"Cc1cccc(C)c1OCC(=O)N[C@@H](Cc1ccccc1)[C@@H](O)C[C@H](Cc1ccccc1)NC(=O)[C@H](C(C)C)N1CCC(=O)NC1=O [Example 25E, (2S,3S,5S)-2-(2,6-Dimethylphenoxyacetyl)amino-3-hydroxy-5-[2S-(1-tetrahydro-pyrimid-2,4-dionyl)-3-methylbutanoyl]amino-1,6-diphenylhexane]",22900 nM,100%,0.012 µM
"Cc1cccc(C)c1OCC(=O)N[C@@H](Cc1ccccc1)[C@@H](O)C[C@H](Cc1ccccc1)NC(=O)[C@H](C(C)C)N1CCNNC1=O [Example 26H, (2S,3S,5S)-2-(2,6-Dimethylphenoxyacetyl)amino-3-hydroxy-5[2S-(4-aza-1-tetrahydro-pyrimid-2-onyl)-3-methyl-butanoyl]amino-1,6-diphenylhexane]",33000 nM,94.6%,0.015 µM
"Cc1cccc(C)c1OCC(=O)N[C@@H](Cc1ccccc1)[C@@H](O)C[C@H](NC(=O)[C@H](C(C)C)N1CCCNC1=O)C(C)C [Example 27D, (2S,3S,5S)-2-(2,6-Dimethylphenoxyacetyl)amino-3-hydroxy-5-[2S-(1-tetrahydro-pyrimid-2-onyl)-3-methylbutanoyl]amino-1-phenyl-6-methylheptane]",56200 nM,92.9%,0.03 µM
"Cc1cccc(C)c1OCC(=O)N[C@@H](Cc1ccccc1)[C@@H](O)C[C@H](NC(=O)[C@H](C(C)C)N1CCC(=O)NC1=O)C(C)C [Example 28, (2S,3S,5S)-2-(2,6-Dimethylphenoxyacetyl)amino-3-hydroxy-5-[2S-(1-tetrahydro-pyrimid-2,4-dionyl)-3-methylbutanoyl]amino-1-phenyl-6-methylheptane]",72200 nM,86.6%,0.011 µM
"Cc1cccc(C)c1OCC(=O)N[C@@H](Cc1ccccc1)[C@@H](O)C[C@H](Cc1ccccc1)NC(=O)[C@H](C(C)C)N1CCNC(=O)C1=O [Example 29C, (2S,3S,5S)-2-(2,6-Dimethylphenoxyacetyl)amino-3-hydroxy-5-[2S-(1-piperazin-2,3-dionyl)-3-methylbutanoyl]amino-1,6-diphenylhexane]",56000 nM,72.6%,0.427 µM
"Cc1cccc(C)c1OCC(=O)N[C@@H](Cc1ccccc1)[C@@H](O)C[C@H](Cc1ccccc1)NC(=O)[C@H](C(C)C)N1CC=NNC1=O [Example 30B, (2S,3S,5S)-2-(2,6-Dimethylphenoxyacetyl)amino-3-hydroxy-5[2S-(4-aza-4,5-dehydro-1-pyrimid-2-onyl)-3-methyl-butanoyl]amino-1,6-diphenylhexane]",18000 nM,91.0%,0.003 µM
